Paper PMC12040169 (PLOS Biology, 2025)

Test: in vitro
Conditions: human, hela cells, % viability

Structure (SMILES)	viability at 28.5 h, 10 µM [%]
Cc1ccc(-c2csc(=Nc3ccc(C(=O)O)cc3)n2Cc2ccccc2)cc1 [CBK296062]	105
O=C(NC(=S)Nc1ccc2oc(-c3cncc(Br)c3)nc2c1)c1cc([N+](=O)[O-])ccc1N1CCOCC1 [CBK268864]	118
C=C(C)Cn1c(SC(C)C)nnc1-c1ccccc1OC [CBK200072]	97.1
Clc1ccc(Nc2ncnc3c2cnn3-c2ccc(Cl)cc2)cc1 [CBK287356]	86.1
CC(C)(C)NCC(O)COc1ccc(Cl)cc1Cl (stereo not drawn) [CBK025597C]	101
CC1=NN(c2nc(-c3cccc([N+](=O)[O-])c3)cs2)C(=O)C1/N=N/c1ccc(S(N)(=O)=O)cc1 (stereo not drawn) [CBK262434]	94
Cc1ccc(OC(C)C(=O)N(C)c2ccccc2)cc1 (stereo not drawn) [CBK268645]	111
OCCNCCOc1ccc(Cl)cc1Br [CBK265083G]	116
COC(=O)C(CC(=O)c1ccc(Br)cc1)n1cccn1 (stereo not drawn) [CBK269338]	104
Cn1c(=O)n(C)c2cc(S(=O)(=O)ON3C(=O)c4cccc5cc([N+](=O)[O-])cc(c45)C3=O)ccc21 [CBK267566]	91.6
Cc1cc(C)n(CC2CCCN2CCc2ccccn2)n1 (stereo not drawn) [CBK304846]	100
Cc1ccc(-c2cc(C(=O)NCC3(C)COC3)no2)cc1 [CBK281744]	93.8
Cc1nnc(N2CCN(Cc3sccc3Cl)CC2)nc1C [CBK304075]	93.7
O=C(O)C1C2CC(c3ccccc3)C(C2)C1C(=O)O (stereo not drawn) [CBK287147]	95.7
O=C(O)c1cc(NC(=O)C2CC2)cc(C(=O)O)c1 [CBK268564]	94.3
CNC(=O)c1cnc2sc3c(n2c1=O)CCCC3 [CBK288126]	102
CC1(C)Cc2ccccc2C(NCC(=O)O)=N1 [CBK262562]	83
O=C(O)CC1S\C(=N/N=C\C=C/c2ccccc2)N(c2ccc(O)cc2)C1=O (stereo not drawn) [CBK263688]	93
O=c1cc(N2CCN(CC3(O)CCNC3)CC2)c(-c2ccccc2)n[nH]1 (stereo not drawn) [CBK307088]	107
Cc1cc(NC(=O)c2c(F)cccc2F)c2ccccc2n1 [CBK122737]	92.7
CCSc1nnnn1-c1cccc(NC(C)=O)c1 [CBK305511]	94.4
CC1(C)SC(NCC2CCCCC2)=NC1=O [CBK067808]	91.2

Structure (SMILES)	viability at 28.5 h, 10 µM [%]
O=C(O)c1ccccc1N1C(=O)C2CC=C(Cl)CC2C1=O (stereo not drawn) [CBK287007]	94.4
CS(=O)(=O)Nc1ccc(CNC(=O)c2ccc3[nH]ccc3c2)cc1 [CBK161747]	93.5
CC(Oc1ccc(Cl)cc1Cl)C(=O)Nc1sc2c(c1C(N)=O)CCCCCC2 (stereo not drawn) [CBK265394]	85.8
CCCOc1nccnc1N1CCNCC1 [CBK001839G]	82.4
O=C(Cc1nnn[nH]1)Nc1cccc(-c2nn[nH]n2)c1 [CBK160122]	116
c1ccc(Cn2cc(-c3nccnc3OC(c3ccccc3)c3ccccc3)cn2)cc1 [CBK107093]	88.2
CC(C)NC(=O)C1(Cc2ccc(-c3ccccc3F)cc2)CCN(C(=O)C(C)C)CC1 [CBK285754]	102
COc1ccccc1N1CCN(CC(O)COCc2ccc3c(c2)OCO3)CC1 (stereo not drawn) [CBK278323C]	101
O=C(O)C1(NS(=O)(=O)c2ccc(Cl)cc2)CCCCC1 [CBK028566]	111
CC(C)Nc1nc(-c2cccnc2)cn2ccnc12 [CBK093608]	96.6
CCn1c(SCC(=O)Nc2ccc(OC)c(Cl)c2)nnc1-c1ccccc1O [CBK268021]	101
COc1cc(C=C2C(=O)OC(C)(C(C)(C)C)OC2=O)cc(Br)c1OC (stereo not drawn) [CBK028893]	96.5
CC(=O)N1CCCC[C@H]2[C@H]1C[C@@H](c1ccccc1)N2C(=O)CN1CCCCCC1 [CBK286120]	117
O=C(Nc1ccc(C(F)(F)F)cc1)C1=C(O)CN(c2ccc(Cl)cc2)C1=O [CBK017603]	84.8
COCC(C)NC(=O)Cn1c(-c2ccc(F)cc2)cc2cccnc21 (stereo not drawn) [CBK284863]	113
OCCN1CCN(c2ccc(/C=C/c3ccccc3)cn2)CC1 [CBK036849]	89.2
COC(=O)c1sccc1NS(=O)(=O)c1ccc2ccccc2c1 [CBK004500]	103
O=C(CCN1CCOCC1)NNC(=O)Nc1cccc(C(F)(F)F)c1 [CBK269017]	104
COc1ccc(C(N2CCOCC2)N2CCOCC2)cc1 [CBK261002]	102
CC(NC(=O)C1CCN(CCn2cnc3c2c(=O)n(C)c(=O)n3C)CC1)c1ccccc1 (stereo not drawn) [CBK148624]	99.4
Cc1ccc(O)c(CN[C@@H]2CCC[C@H]2Cc2cc(C)no2)c1 [CBK284936]	101
FC(F)(F)c1cccc(NC(=S)Nc2ccc(Cc3ccncc3)cc2)c1 [CBK267251]	89.1

Structure (SMILES)	viability at 28.5 h, 10 µM [%]
COCCNC(=O)Cn1nnc(-c2ccc(OC)cc2)n1 [CBK069349]	88.1
CC(NC(=O)CCN1CCN(C)CC1)c1cc2cc(Cl)ccc2o1 (stereo not drawn) [CBK281601]	102
CCC(C)NC(=O)C1=CCN(S(C)(=O)=O)C1 (stereo not drawn) [CBK282861]	101
Cc1cc(CC(=O)NCc2c(-c3ccccc3)noc2C)on1 [CBK144090]	92.2
Cc1ccccc1-c1nnc2n1CCCN2 [CBK200089]	115
Cc1ccc2cn[nH]c2c1 [CBK016109]	123
COc1ccc(C)cc1Nc1nc(N)nc(-c2oc3ccccc3c2C)n1 [CBK269026]	107
COc1ccc2cc(C(=O)NCCCc3ccccn3)n(C)c2c1 [CBK282545]	103
Cc1cc(C)n2nc(C(=O)N3CCCC34CC=CC4)cc2n1 [CBK282815]	88.7
Cc1ccc(-c2csc3ncn(Cc4ccccc4C)c(=O)c23)cc1C [CBK099921]	104
O=C(NCCN1CCOCC1)C1CCN(c2nc3c(-c4ccccc4F)csc3c(=O)[nH]2)CC1 [CBK215442]	104
Cc1nc(CC(=O)N2[C@H]3CCCCCN(C)[C@@]3(C)C[C@H]2c2ccccc2)cs1 [CBK286104]	109
NC(=O)c1ccc(NCCCN2CCOCC2)c([N+](=O)[O-])c1 [CBK264443]	104
COc1ccc(N(C(C)C(=O)N/N=C(\C)c2ccccc2O)S(C)(=O)=O)cc1 (stereo not drawn) [CBK262402]	93.4
O=C(O)CSc1nc2ccccc2n2cnnc12 [CBK269831]	92.8
Cc1ccc(S(=O)(=O)NCCCC(=O)Oc2cc3oc(=O)c4c(c3cc2Cl)CCC4)cc1 [CBK264967]	86.8
CN(Cc1nc2ccccc2c(=O)[nH]1)Cc1cc2c(cc1Br)OCCO2 [CBK296715]	108
O=C(O)c1cccc(S(=O)(=O)N2CCC(C(=O)O)CC2)c1 [CBK267199]	93.6
OC1(Cn2cnc3ccccc32)CCN(Cc2ccc(F)cc2)CC1 [CBK284661]	85.7
O=C(Cc1ccccn1)NC(Cc1ccsc1)c1nccs1 (stereo not drawn) [CBK282821]	85.7
CCN1CCC2(CC1)Nc1cc(Cl)c(S(N)(=O)=O)cc1S(=O)(=O)N2 [CBK010418C]	97.7
CCn1c(CN2CCC(c3noc(C)n3)CC2)nc2c(F)cccc21 [CBK304960]	91.1

Structure (SMILES)	viability at 28.5 h, 10 µM [%]
COc1ccc(Nc2nc(-c3cc(C(C)C)ccc3OC)cnc2N)c(C)c1 [CBK064098]	87
CC(=O)CCCCC(=O)N1CCC2(CC1)CC(=O)c1cc(C)c(C)cc1O2 [CBK156497]	106
CN(C)C[C@H]1CC[C@]2(CC1)CN(C(=O)C1CC1)Cc1ccccc1O2 [CBK284920]	101
N#Cc1c(C(F)(F)F)cc(-c2ccncc2)nc1SCCN1CCCCCC1 [CBK267451]	85.3
O=C(O)CCc1nn2c3ccccc3n(CC(=O)c3cccs3)c2nc1=O [CBK267518]	99.8
COc1ccc(CCNC(=S)n2cc(C)cn2)cc1OC [CBK267001]	89
O=C(NNCc1ccccc1)c1cc(Br)cnc1N1CCN(C(=O)c2ccco2)CC1 [CBK076460]	101
Brc1cn2c(-c3ccccc3)cnc2c(N2CCCC2)n1 [CBK091488]	106
O=C(CN1CCN(CC(=O)NC2CC2)CC1)Nc1cc(Cl)ccc1Cl [CBK306091]	84.8
c1csc(-c2nn3c(Cn4cnc5ccccc54)nnc3s2)c1 [CBK268262]	87.9
O=C(O)C(Cc1ccccc1)N1C(=O)/C(=C/C=C/c2ccccc2)SC1=S (stereo not drawn) [CBK263496]	99.6
CS(=O)(=O)Nc1ccc(-c2cccc(C(F)(F)F)c2)c2ccccc12 [CBK083746]	95.4
O=C(Nc1ccc(O)c(C(=O)O)c1)c1ccc2c(c1)C(=O)N(CC1CCCO1)C2=O (stereo not drawn) [CBK268280]	101
COc1cncc(-c2ccc(N3CCN(C(=O)c4ccco4)CC3)nc2)c1 [CBK037801]	96.7
NS(=O)(=O)c1ccc(NC(=S)Nc2nn(Cc3ccc(Cl)c(Cl)c3)cc2Br)cc1 [CBK267082]	94.4
CC(C)(C)c1ccc(OCC(=O)Nc2ccc(S(=O)(=O)N3CCc4ccccc43)cc2)cc1 [CBK265352]	100
CCC(C)N(C)CCNC(=O)Nc1ccc(F)c(-n2nnnc2C)c1 (stereo not drawn) [CBK305176]	101
O=C(NCC1CCCO1)C(=O)Nc1ccccc1F (stereo not drawn) [CBK263557]	90.5
CCCCNc1cc(N2CCOC(Cn3cc(C)cn3)C2)nc(N)n1 (stereo not drawn) [CBK305417]	53.3

Same assay, conditions: human, hela cells, % viability, bulk resorufin, single well

Structure (SMILES)	viability at 28.5 h, 10 µM [%]
CC1=CC(C)C(COC(N)=O)(COC(N)=O)C(C)C1 (stereo not drawn) [CBK020974]	93.7
O=C(NC1CC1)c1nn(Cc2ccc(S(=O)(=O)N3CCCCC3)cc2)c2ccccc12 [CBK047820]	106
Clc1cncc(N2CCNCC2)c1 [CBK022556F]	117
CCCCN1C(=O)C(O)(c2c(C)nn(CCC#N)c2N)c2ccccc21 (stereo not drawn) [CBK306211]	110
CCc1ccc(CN2CCN(Cc3cc(Br)ccc3O)CC2)cc1 [CBK263666]	96.5
